Test results: patent publication US7700577B2, “Carbohydrate based anti-bacterials” (Alchemia Limited, priority 2002, dated 2010)

Test system: S. aureus
Test: MIC testing, broth microdilution (NCCLS), S. aureus
Assay type: cell-based, Staphylococcus aureus
Conditions: for SA24 (MIC): S. aureus after 24 hours exposure; for SA48 (MIC): S. aureus after 48 hours exposure
Description: The broth microdilution format of the National Committee for Clinical Laboratory Standards (NCCLS) approved standard for susceptibility tests as outlined in M7-A4 “methods for dillution Antimicrobial susceptibility tests for bacteria that grow aerobically; approved standard—fifth edition”, January 2000 was utilized for minimum inhibitory concentration testing in Mueller-Hinton broth. The broth for Streptococcus pyogenes testing was supplemented with 2% laked horse blood. A positive result in initial testing was determined by complete inhibition of macroscopic bacterial growth at a concentration of 128 micrograms per mL after incubation for 16 to 24 hours at 37 degrees C. In the case of Micrococcus luteus, incubation was at 30 degrees C. […] Bacterial Types Are: • SA24 S. aureus after 24 hours exposure • SA48 S. aureus after 48 hours exposure • EC24 E. coli after 24 hours exposure

## Cc1ccc(S(=O)(=O)NC2[C@H](O[C@@H]3C(NC(=O)Nc4cccc(C(F)(F)F)c4)COC(CO)[C@@H]3N)OC(CO)[C@@H](O)[C@@H]2O)cc1 (some centres unmarked) [compound 50]
  SA24 (MIC): + (+ indicates an MIC value of less than 128 micrograms per mL)

## N[C@H]1C(CO)OCC(NC(=O)Nc2cccc(C(F)(F)F)c2)[C@H]1O[C@@H]1OC(CO)[C@@H](O)[C@H](O)C1NC(=O)OCc1ccccc1 (some centres unmarked) [compound 45]
  SA24 (MIC): + (+ indicates an MIC value of less than 128 micrograms per mL)

## CCCCCCCCCCC(=O)NC1C(CO)OCC(NC(=O)Nc2cccc(C(F)(F)F)c2)C1OC1OC(CO)C(O)C(O)C1NC(=O)OCc1ccccc1 (centres unmarked) [compound 78]
  SA24 (MIC): + (+ indicates an MIC value of less than 128 micrograms per mL)

## CCCCCCCCCCC(=O)NC1C(CO)OCC(NC(=O)NCCCC)C1OC1OC(CO)C(O)C(O)C1NS(=O)(=O)c1ccc(C)cc1 (centres unmarked) [compound 80]
  SA24 (MIC): + (+ indicates an MIC value of less than 128 micrograms per mL)

## CCCCCCCCCCC(=O)NC1C(CO)OCC(NC(=O)Nc2cccc(C(F)(F)F)c2)C1OC1OC(CO)C(O)C(O)C1NS(=O)(=O)c1ccc(C)cc1 (centres unmarked) [compound 79]
  SA24 (MIC): + (+ indicates an MIC value of less than 128 micrograms per mL)

## O=C(N[C@H]1C(CO)OCC(NS(=O)(=O)c2cccc(C(F)(F)F)c2)[C@H]1O[C@@H]1OC(CO)[C@@H](O)[C@H](O)C1NS(=O)(=O)c1cccc(C(F)(F)F)c1)c1ccc(-c2ccccc2)cc1 (some centres unmarked) [compound 36]
  SA24 (MIC): + (+ indicates an MIC value of less than 128 micrograms per mL)
  SA48 (MIC): + (+ indicates an MIC value of less than 128 micrograms per mL)

## NC1[C@H](O[C@@H]2C(NC(=O)Nc3cccc(C(F)(F)F)c3)COC(CO)[C@@H]2NC(=O)c2ccc(-c3ccccc3)cc2)OC(CO)[C@@H](O)[C@@H]1O (some centres unmarked) [compound 43]
  SA24 (MIC): + (+ indicates an MIC value of less than 128 micrograms per mL)

## CCCCCCCCOc1ccc(C(=O)NC2C(CO)OCC(NC(=O)Nc3cccc(C(F)(F)F)c3)C2OC2OC(CO)C(O)C(O)C2NC(=O)Nc2cccc(C(F)(F)F)c2)cc1 (centres unmarked) [compound 64]
  SA24 (MIC): + (+ indicates an MIC value of less than 128 micrograms per mL)
  SA48 (MIC): + (+ indicates an MIC value of less than 128 micrograms per mL)

## Cc1ccc(NC(=N)NC2[C@H](O[C@@H]3C(NC(=O)Nc4cccc(C(F)(F)F)c4)COC(CO)[C@@H]3N)OC(CO)[C@@H](O)[C@@H]2O)cc1 (some centres unmarked) [compound 47]
  SA24 (MIC): + (+ indicates an MIC value of less than 128 micrograms per mL)

## CCCCCC(C)CCC(=O)N[C@H]1C(CO)OCC(NC(=O)Nc2cccc(C(F)(F)F)c2)[C@H]1O[C@@H]1OC(CO)[C@@H](O)[C@H](O)C1NC(=O)Nc1cccc(C(F)(F)F)c1 (some centres unmarked) [compound 55]
  SA24 (MIC): + (+ indicates an MIC value of less than 128 micrograms per mL)
  SA48 (MIC): + (+ indicates an MIC value of less than 128 micrograms per mL)

## Cc1ccc(S(=O)(=O)NC2[C@H](O[C@@H]3C(NC(=N)Nc4cccc(C(F)(F)F)c4)COC(CO)[C@@H]3N)OC(CO)[C@@H](O)[C@@H]2O)cc1 (some centres unmarked) [compound 13]
  SA24 (MIC): + (+ indicates an MIC value of less than 128 micrograms per mL)

## CCCCCN(CCCCC)C1C(CO)OCC(NC(=O)Nc2cccc(C(F)(F)F)c2)C1OC1OC(CO)C(O)C(O)C1NC(=O)Nc1cccc(C(F)(F)F)c1 (centres unmarked) [compound 60]
  SA24 (MIC): + (+ indicates an MIC value of less than 128 micrograms per mL)
  SA48 (MIC): + (+ indicates an MIC value of less than 128 micrograms per mL)

## O=C(Nc1cccc(C(F)(F)F)c1)NC1COC(CO)[C@H](NC(=O)c2ccc(-c3ccccc3)cc2)[C@@H]1O[C@@H]1OC(CO)[C@@H](O)[C@H](O)C1NC(=O)OCc1ccccc1 (some centres unmarked) [compound 44]
  SA24 (MIC): + (+ indicates an MIC value of less than 128 micrograms per mL)
  SA48 (MIC): + (+ indicates an MIC value of less than 128 micrograms per mL)

## O=C(/C=C/c1ccc(Cl)cc1)N[C@H]1C(CO)OCC(NC(=O)Nc2cccc(C(F)(F)F)c2)[C@H]1O[C@@H]1OC(CO)[C@@H](O)[C@H](O)C1NC(=O)Nc1cccc(C(F)(F)F)c1 (some centres unmarked) [compound 58]
  SA24 (MIC): + (+ indicates an MIC value of less than 128 micrograms per mL)
  SA48 (MIC): + (+ indicates an MIC value of less than 128 micrograms per mL)
